These results are taken from patent publication US20240002326A1, “COMPOUNDS AND USE THEREOF IN METHODS OF TREATMENT” (The University of Queensland, priority 2016, published 2024).

The test system of data set [1] is 4T1.2 mammary carcinoma cells. Description: 4T1.2 mammary carcinoma mouse model of breast cancer metastasis. The conditions noted are these: 25 mg/kg/day oral, day 3 to day 12. The format is in vivo, BALB/c mice.
The target of a further data set is full-length mouse SOX18 (Mus musculus (Mouse), UniProt P43680). Put plainly: FP DNA-binding competition assay, full-length SOX18. Conditions: full-length mouse SOX18, Prox1-DNA probe, read-out: FP IC50 ± SD. How it is done: Full-length mouse SOX18. A N-terminally tagged mouse HIS-GST-SOX18 was recombinantly expressed in Sf9 cells, purified on GST resin (GE Healthcare Life Sciences, Sweden) and eluted in Tris buffer (50 mM Tris, 500 mM NaCl, 10 mM reduced glutathione, pH 8.0). cDNA clone of mouse Sox18 was PCR amplified and cloned into the pOPIN-GST vector, to generate N-terminally tagged HIS-GST-SOX18. A sequence verified construct was co-transfected with flashBACULTRA (Oxford Expression Technologies, Oxford, United Kingdom) baculovirus DNA onto Spodoptera frugiperda Sf9 cells to obtain recombinantly expressed HIS-GST-SOX18. High Five cells (BTI-TN-5B1-4) in Sf-900™ II serum-free medium were infected at cell density of 1.5×10^6 cells/mL with a multiplicity of infection (MOI) of 5 PFU/cell, and incubated at 21° C. for 144 h before harvest. The cell pellet from 100 mL of expression culture was resuspended in 30 mL of phosphate lysis buffer (50 mM sodium phosphate, 500 mM sodium chloride, 1% Triton X-100, 2 mM magnesium chloride, one tablet of cOmplete Protease Inhibitor Cocktail, pH 7.5) and sonicated on ice for 20 s. The cell lysate was centrifuged at 17,000×g for 40 min at 4° C. Supernatant was incubated with Benzonase Nuclease (Merck Millipore) for 1 h at room temperature for DNA degradation, before being mixed with 500 μL GST resin (GE Healthcare Life Sciences, Sweden) and incubated on a rotating wheel at room temperature for 1 h. The sample was centrifuged at 500×g for 1 min to remove unbound protein in the supernatant. The resin was further washed with 50 resin volumes (RV) wash buffer (50 mM sodium phosphate, 500 mM NaCl, pH 7.5), with unbound protein removed by centrifugation as above. Bound protein was eluted from the resin with 3×1 RV elution buffer (50 mM Tris, 500 mM NaCl, 10 mM reduced glutathione, pH 8.0), collecting the supernatant by centrifugation as above.
Sequence of full-length mouse SOX18 (P43680 whole entry): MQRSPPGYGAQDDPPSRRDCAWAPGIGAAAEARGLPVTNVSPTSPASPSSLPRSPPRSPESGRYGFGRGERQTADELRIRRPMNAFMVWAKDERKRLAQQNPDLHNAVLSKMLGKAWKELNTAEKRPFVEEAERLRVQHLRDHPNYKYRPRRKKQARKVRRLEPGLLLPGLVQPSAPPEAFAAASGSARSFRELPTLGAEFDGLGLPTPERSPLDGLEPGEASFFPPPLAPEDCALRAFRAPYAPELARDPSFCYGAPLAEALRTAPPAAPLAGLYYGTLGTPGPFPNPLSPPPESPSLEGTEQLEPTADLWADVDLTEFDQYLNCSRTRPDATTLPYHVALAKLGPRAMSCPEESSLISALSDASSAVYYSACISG
The DNA-binding competition assay was performed in black 384-well plates, with mouse full length SOX18, or SOX-HMG fragments. All experiments were performed using a fluorescently-labelled Prox1-DNA element. Controls consisted of free labelled DNA (low FP milli-Polarization index, mP), labelled DNA in presence of protein (negative control, high mP), and labelled DNA and protein in presence of competing excess of unlabelled DNA (positive control, low mP)
The DNA-binding competition assay was performed in 25 uL, in black 384-well plates, using either 30 mM HEPES (N-2-Hydroxyethylpiperazine-N′-2-Ethanesulfonic Acid) (pH 7.5, with 100 mM KCl, 40 mM NaCl, 10 mM NH4OAc, […], 2 mM MgCl2, 0.5 mM EDTA, 0.01% NP-40) for mouse full length SOX18, or Tris-NaCl (10 mM Tris pH 8.0 and 100 mM NaCl) for SOX-HMG fragments. All experiments were performed using a 40 bp double-stranded Prox1-DNA element with 5′ fluorescein amidite (FAM) label (Sigma Proligo or InVitrogen). Optimum binding levels were obtained at 200 nM of mouse full length SOX18 and 60 nM of SOX-HMG fragment, in presence of 5 nM labelled DNA. Controls consisted of free labelled DNA (low FP milli-Polarization index, mP), labelled DNA in presence of protein (negative control, high mP), and labelled DNA and protein in presence of 400 time competing excess of unlabelled DNA (positive control, low mP). Depending on compound, final DMSO concentrations ranged from 2 to 3.33% v/v. After mixing protein, DNA probe and compound, plates were sealed and briskly agitated in the dark for 5 minutes at room temperature, 10 minutes at 37° C., and 30 minutes at room temperature, before reading fluorescence polarization on a Tecan M1000Pro (λexc=485 nm, λem=525 nm). All experiments were performed in triplicates.

Another data set addresses SOX18 (Mus musculus (Mouse), UniProt P43680). Put plainly: Cell-based luciferase SOX18-dependent transactivation (Vcam1 promoter) in COS-7. Conditions: COS7, 24 h, read-out: In vitro efficacy in cell IC50 ± SD COS7 (Luc). How it is done:
Monkey kidney fibroblast-like cells (COS-7) were cultured at 37° C., 5% CO2 in DMEM (Life technologies, 11995) with FBS, sodium pyruvate, L-glutamine, penicillin, streptomycin, non-essential amino acids and HEPES. Cells were grown in 96-well plates to 80% confluency, and transfected with mouse plasmids pGL2 Vcam 1 promoter construct (VC1889) and pSG5 Sox18, using X-tremeGENE 9 DNA transfection reagent (Roche, 06365787001) (Hosking et al., 2004, Duong et al., 2014). After 4-6 h transfection, cells were incubated with compounds in 0.5% FBS medium for another 24 h, before lysis and luciferase assay (Perkin Elmer, 6016711).

The nature of data set [2]: Cytotoxicity assay (Alamar blue), COS-7. The format is cell-based, Monkey. Conditions: chlorocebus aethiops, COS-7 cells; COS7, 24 h; read-out: In vitro cytotoxicity CC50 ± SD COS7. How it is done:
Cell toxicity was determined using Alamar blue, as previously described (McMillian et al., 2002). COS-7 cells were seeded as 7000 cells per well in black wall clear bottom 96-well plates in DMEM medium (Life Technologies Australia) with 10% FBS. HepG2 and HEK293 cell lines, from ATCC, were seeded as 5000 cells per well in black wall clear bottom 384-well cell culture plates in DMEM with 1% FBS. Cells were cultured for 24 h at 37° C., 5% CO2. A serial dilution of compounds was added, with a final DMSO concentration adjusted to 0.5% v/v. Cells were incubated for another 24 h. 1 Triton X-100 was used as negative control, and 0.5% DMSO as positive control. 5 μM Alamar blue was added to each well and fluorescence was measured (λexc=560 nm, λem=590 nm) after 2 h incubation at 37° C. Data were analysed using Prism software.

Sequence of SOX18 (P43680 whole entry): as above

On to `CC(=O)Oc1ccccc1C(=O)O` [Aspirin], for which, in data set [1], the “median latency (survival)” value was 34 days.
As usually defined, the IC50 is the concentration needed to halve the response being measured. Usually CC50 stands for the concentration giving 50% cytotoxicity. Regarding `O=C(O)c1cccnc1Nc1cccc(C(F)(F)F)c1` [Nifumic acid, niflumic acid, reference compound], the IC50 stood at 375 ± 84 µM at full-length mouse SOX18 and 50.5 ± 7.6 µM at SOX18. The CC50 at 24 h in data set [2] is more than 200 µM.
As to `Cc1ccc(Cl)c(Nc2ccccc2C(=O)O)c1Cl` [Meclofenamic acid, reference compound], the IC50 at full-length mouse SOX18 stood at 163 ± 17.7 µM. In addition, the CC50 at 24 h in data set [2] is 16 ± 0.3 µM.
